The text below walks through data of patent US20240059703A1 (AMGEN INC., priority 2021, published 2024).

Experiment [1] concerns the target KRAS G12C (Homo sapiens (Human), UniProt P01116, C118A/G12C). Put plainly: 2 h coupled exchange assay. In kind it is biochemical. As to conditions: Avg 2 h Coupled exchange IC50, 2 h compound pre-incubation, SOS-mediated nucleotide exchange. The procedure:
The term “2 h coupled exchange assay” or “20 h coupled exchange assay” as used herein refers to the assay described in the Section entitled “BIOLOGICAL EVALUATION.”

Experiment [2] deals with MIA PaCa-2 (human pancreatic carcinoma) cells. Put plainly: Cell Viability Assay (CellTiter-Glo), MIA PaCa-2. Conditions: Homo sapiens, MIA PaCa-2, 72 h. The class given is cell-based. The procedure: Serially-diluted compound or DMSO was added to the cells, and plates were incubated at 37° C., 5% CO2 for 72 h. Cell viability was measured using a CellTiter-Glo® Luminescent Cell Viability Assay kit (Promega) according to the manufacturer's protocol. The luminescence signal of treated samples was normalized to DMSO control, and data were analyzed using a 4-parameter logistic model to calculate IC50 values.

Experiment [3] concerns A549 (human lung carcinoma) cells. In words: Cell Viability Assay (CellTiter-Glo), A549. As to conditions: Homo sapiens, A549, 72 h. In kind it is cell-based. The procedure, abridged: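 RPMI 1640/10% FBS; seed 1.67E+04 cells/mL, o/n 37° C., 5% CO2; serial-dilution cmpd 72 h; CellTiter-Glo luminescence vs DMSO; 4-parameter logistic fit → IC50.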
In general terms: Cellular ATP, detected with luciferase, serves as a proxy for viable cell number.

Some results are limits rather than exact numbers.

As usually defined, the IC50 is the midpoint of a concentration-inhibition curve. Low readings indicate greater potency, high ones weaker potency.

Chain of KRAS G12C (P01116 other isoform, or with tags, fused parts or gaps G12C/C118A): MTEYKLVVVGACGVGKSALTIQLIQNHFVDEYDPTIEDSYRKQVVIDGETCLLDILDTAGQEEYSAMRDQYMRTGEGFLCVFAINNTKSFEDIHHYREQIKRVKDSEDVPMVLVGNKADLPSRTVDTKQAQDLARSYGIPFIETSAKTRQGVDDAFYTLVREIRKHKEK

For the molecule `C=CC(=O)N1CC2(CCN(c3nc4ccccc4c(-c4cc(O)cc5ccccc45)c3C#N)C2)C1` [Example 2-4, 4-(3-hydroxy-1-naphthalenyl)-2-(2-(2-propenoyl)-2,6-diazaspiro[3.4]octan-6-yl)-3-quinolinecarbonitrile], the IC50 in experiment [1] is 173 nM; in experiment [2], 2060 nM; in experiment [3], 6250 nM.

With `C=CC(=O)N1CC2(C1)CN(c1nc3c(c(-c4c(C)ccc5[nH]ncc45)c1C#N)CCC(C)C3)CC2(F)F` (stereo not drawn) [Example 2-5, 2-(8,8-difluoro-2-(2-propenoyl)-2,6-diazaspiro[3.4]octan-6-yl)-7-methyl-4-(5-methyl-1H-indazol-4-yl)-5,6,7,8-tetrahydro-3-quinolinecarbonitrile], the values for the IC50 in experiment [1], in experiment [2] and in experiment [3] were 42 nM, 943 nM and 6250 nM, respectively.

With `C=CC(=O)N1CC2(CCN(c3nc4ccccc4c(-c4c(C)c(C)cc5[nH]ncc45)c3C#N)C2)C1` [Example 2-6, 4-(5,6-dimethyl-1H-indazol-4-yl)-2-(2-(2-propenoyl)-2,6-diazaspiro[3.4]octan-6-yl)-3-quinolinecarbonitrile], the values for the IC50 in experiment [1], in experiment [2] and in experiment [3] were 56 nM, 237 nM and 6250 nM, respectively.

For `C=CC(=O)N1CC2(CCN(c3nc4c(c(-c5c(C)ccc6[nH]ncc56)c3C#N)CCCC4)C2)C1` [Example 2-8, 4-(5-methyl-1H-indazol-4-yl)-2-(2-(2-propenoyl)-2,6-diazaspiro[3.4]octan-6-yl)-5,6,7,8-tetrahydro-3-quinolinecarbonitrile], the IC50 worked out at 59 nM in experiment [1], 554 nM in experiment [2] and 3640 nM in experiment [3].

As to `C=CC(=O)N1CC2(CCN(c3nc4c(c(-c5cc(O)ccc5F)c3C#N)CCCC4)C2)C1` [Example 2-9, 4-(2-fluoro-5-hydroxyphenyl)-2-(2-(2-propenoyl)-2,6-diazaspiro[3.4]octan-6-yl)-5,6,7,8-tetrahydro-3-quinolinecarbonitrile], the IC50 turned out to be 410 nM in experiment [1], 2970 nM in experiment [2] and 6120 nM in experiment [3].

Consider `C=CC(=O)N1CC2(CCN(c3nc4c(c(-c5c(C)ccc6[nH]ncc56)c3C#N)CCCCC4)C2)C1` [Example 2-10, 4-(5-methyl-1H-indazol-4-yl)-2-(2-(2-propenoyl)-2,6-diazaspiro[3.4]octan-6-yl)-6,7,8,9-tetrahydro-5H-cyclohepta[b]pyridine-3-carbonitrile], for which the IC50 is 44 nM in experiment [1], 452 nM in experiment [2] and > 5000 nM in experiment [3].

As for `C=CC(=O)N1CC2(CCN(c3nc4c(c(-c5cccc6cc(O)ccc56)c3C)CCC(C)(C)C4)C2)C1` [Example 2-13, 1-(6-(4-(6-hydroxy-1-naphthalenyl)-3,7,7-trimethyl-5,6,7,8-tetrahydro-2-quinolinyl)-2,6-diazaspiro[3.4]octan-2-yl)-2-propen-1-one], the results for the IC50 in experiment [1], in experiment [2] and in experiment [3] were 150 nM, 403 nM and > 5000 nM, respectively.

On to `C=CC(=O)N1CC2(CCN(c3nc4c(c(-c5c(C)ccc6cnn(C)c56)c3C)CCC(C)(C)C4)C2)C1` [Example 2-19, 1-(6-(4-(1,6-dimethyl-1H-indazol-7-yl)-3,7,7-trimethyl-5,6,7,8-tetrahydro-2-quinolinyl)-2,6-diazaspiro[3,4]octan-2-yl)-2-propen-1-one], for which the results for the half-maximal inhibitory concentration (IC50) in experiment [1], in experiment [2] and in experiment [3] were 104 nM, 392 nM and > 5000 nM, respectively.

Take `C=CC(=O)N1CC2(CCN(c3nc4c(c(-c5cc(O)cc6ccccc56)c3C)CCC(C)(C)C4)C2)C1` [Example 2-27, 1-(6-(4-(3-hydroxy-1-naphthalenyl)-3,7,7-trimethyl-5,6,7,8-tetrahydro-2-quinolinyl)-2,6-diazaspiro[3,4]octan-2-yl)-2-propen-1-one]: the IC50 is 102 nM in experiment [1], 214 nM in experiment [2] and > 5000 nM in experiment [3].

With `C=CC(=O)N1CC2(CCN(c3nc4c(c(-c5c(C)ccc6[nH]ncc56)c3C)CCC(C)(C)C4)C2)C1` [Example 2-28, 1-(6-(3,7,7-trimethyl-4-(5-methyl-1H-indazol-4-yl)-5,6,7,8-tetrahydro-2-quinolinyl)-2,6-diazaspiro[3.4]octan-2-yl)-2-propen-1-one], the IC50 was 67 nM in experiment [1], 187 nM in experiment [2] and > 5000 nM in experiment [3].

Consider `C=CC(=O)N1CC2(CCN(c3nc4c(c(-c5c(C(F)(F)F)ccc6[nH]ncc56)c3C#N)C[C@H]3C[C@@H]4C3(C)C)C2)C1` [Example 2-31, (1R,9R)-10,10-dimethyl-4-(2-(2-propenoyl)-2,6-diazaspiro[3.4]octan-6-yl)-6-(5-(trifluoromethyl)-1H-indazol-4-yl)-3-azatricyclo[7.1.1.0^2,7]undeca-2,4,6-triene-5-carbonitrile], for which the results for the IC50 in experiment [1], in experiment [2] and in experiment [3] were 53 nM, 54 nM and 2780 nM, respectively.

Regarding `C=CC(=O)N1CC2(CCN(c3nc4c(c(-c5c(C)c(Cl)cc6[nH]ncc56)c3C)COC(C)(C)C4)C2)C1` [Example 2-36, 1-(6-(4-(6-chloro-5-methyl-1H-indazol-4-yl)-3,7,7-trimethyl-7,8-dihydro-5H-pyrano[4,3-b]pyridin-2-yl)-2,6-diazaspiro[3.4]octan-2-yl)-2-propen-1-one], the IC50 in experiment [1] is 20 nM; in experiment [2], 13 nM; in experiment [3], > 5000 nM.

Consider `C=CC(=O)N1CC2(CCN(c3nc4c(c(-c5cc(O)cc6ccccc56)c3C#N)C3CCC4C3)C2)C1` [Example 2-38, (1R,8S)-6-(3-hydroxy-1-naphthalenyl)-4-(2-(2-propenoyl)-2,6-diazaspiro[3.4]octan-6-yl)-3-azatricyclo[6.2.1.0^2,7]undeca-2,4,6-triene-5-carbonitrile|(1S, 8R)-6-(3-hydroxy-1-naphthalenyl)-4-(2-(2-propenoyl)-2,6-diazaspiro[3.4]octan-6-yl)-3-azatricyclo[6.2.1.0^2,7]undeca-2,4,6-triene-5-carbonitrile], for which the IC50 was determined as 67 nM in experiment [1], 157 nM in experiment [2] and 3420 nM in experiment [3].

Turning to `C=CC(=O)N1CC2(CCN(c3nc4c(c(-c5cc(O)cc6ncccc56)c3C#N)C[C@H]3C[C@@H]4C3(C)C)C2)C1` [Example 2-42, (1R,9R)-6-(7-hydroxy-5-quinolinyl)-10,10-dimethyl-4-(2-(2-propenoyl)-2,6-diazaspiro[3,4]octan-6-yl)-3-azatricyclo[7.1.1.0^2,7]undeca-2,4,6-triene-5-carbonitrile], the IC50 in experiment [1] is 28 nM; in experiment [2], 175 nM; in experiment [3], > 5000 nM.

Regarding `C=CC(=O)N1CC2(CCN(c3nc4cc(OC)ccc4c(-c4c(C)ccc5[nH]ncc45)c3C)C2)C1` [Example 2-48, 1-(6-(7-methoxy-3-methyl-4-(5-methyl-1H-indazol-4-yl)-2-quinolinyl)-2,6-diazaspiro[3,4]octan-2-yl)-2-propen-1-one], the IC50 is 109 nM in experiment [1], 885 nM in experiment [2] and > 5000 nM in experiment [3].

In the case of `C=CC(=O)N1CC2(CCN(c3nc4cc(OC)ccc4c(-c4c(C)ccc5cn[nH]c45)c3C)C2)C1` [Example 2-49, 1-(6-(7-methoxy-3-methyl-4-(6-methyl-1H-indazol-7-yl)-2-quinolinyl)-2,6-diazaspiro[3.4]octan-2-yl)-2-propen-1-one], the IC50 is 323 nM in experiment [1], 1210 nM in experiment [2] and > 5000 nM in experiment [3].

In the case of `C=CC(=O)N1CC2(CCN(c3nc4cc(OC)ccc4c(-c4c(C)ccc5cnn(C)c45)c3C)C2)C1` [Example 2-50, 1-(6-(4-(1,6-dimethyl-1H-indazol-7-yl)-7-methoxy-3-methyl-2-quinolinyl)-2,6-diazaspiro[3,4]octan-2-yl)-2-propen-1-one], the IC50 in experiment [1] is 466 nM; in experiment [2] it was 2610 nM; in experiment [3] it was > 5000 nM.

In the case of `C=CC(=O)N1CC2(CCN(c3cc4c(c(-c5cc(O)cc6ccccc56)c3C#N)OCCC4)C2)C1` [Example 2-52, 8-(3-hydroxy-1-naphthalenyl)-6-(2-(2-propenoyl)-2,6-diazaspiro[3.4]octan-6-yl)-3,4-dihydro-2H-chromene-7-carbonitrile], the IC50 is 26 nM in experiment [1], 61 nM in experiment [2] and > 5000 nM in experiment [3].

Regarding `C=CC(=O)N1CC2(CCN(c3nc4c(c(-c5cc(O)ccc5C)c3C)CCC(C)(C)C4)C2)C1` [Example 2-62, 1-(6-(4-(5-hydroxy-2-methylphenyl)-3,7,7-trimethyl-5,6,7,8-tetrahydro-2-quinolinyl)-2,6-diazaspiro[3,4]octan-2-yl)-2-propen-1-one], the IC50 was 186 nM in experiment [1], 1270 nM in experiment [2] and > 5000 nM in experiment [3].

For `C=CC(=O)N1CC2(CCN(c3nc4c(c(-c5cc(O)ccc5Cl)c3C#N)C[C@H]3C[C@@H]4C3(C)C)C2)C1` [Example 2-64, (1R,9R)-6-(2-chloro-5-hydroxyphenyl)-10,10-dimethyl-4-(2-(2-propenoyl)-2,6-diazaspiro[3.4]octan-6-yl)-3-azatricyclo[7.1.1.0^2,7]undeca-2,4,6-triene-5-carbonitrile], the IC50 in experiment [1] is 39 nM; in experiment [2], 432 nM; in experiment [3], > 5000 nM.
